Assay results published in patent US11649228B2, “Zinc indicators for cellular imaging” (The Board of Regents of the University of Texas System, priority 2018, dated 2023).

How the values were obtained:
Format in all cases: cell-based
[1] = system: human islet endocrine cells; experiment: Flow cytometry analysis and sorting of human islet cells with ZIGIR-2; conditions: ZIGIR-2, HPi2 and TM4SF4 labeling
Excerpt: Thus far the majority of studies on ZnT8 and Zn^2+ signaling have been carried out in mouse islet cells, and less is known about the expression of ZnT8 and Zn^2+ distribution in human islet endocrine cells. To analyze granular Zn^2+ activity in human islets by flow cytometry, the inventors dispersed human islets into single cells and sequentially labeled them with ZIGIR-2 and antibodies reactive towards human pancreatic endocrine cells and α-cells (FIG. 12A), including the HPi2 antibody (Dorrell et al., 2008) and an antibody of a tetraspanin family member protein TM4SF4 (Muraro et al., 2016), respectively. The islet endocrine cells (HPi2+, FIG. 13) contained a subset of cells showing high ZIGIR-2 signal and low TM4SF4 expression (P1 subset, FIG. 12B). Immunofluorescence analysis of the sorted cells confirmed that the P1 subset was highly enriched with human β-cells (91%), together with a small percent of δ-cells (FIG. 12C). […] They obtained similar flow cytometry results from different human donors and confirmed high enrichments of β-cell or α-cell in P1 or P2 subset (including P2a and P2b), respectively (FIG. 14). […] In addition to containing more glucagon granules, P2a cells might also express more ZnT8 protein than P2b. Future studies using more quantitative techniques such as western blot should help address the issue.

[2] = system: primary mouse islet cells; experiment: Flow cytometry analysis and FACS of mouse islet cells labeled with ZIGIR-2 and Ex4-Cy5
Excerpt: Among islet endocrine cells, β-cells have long been known to contain a high level of total Zn^2+ in their secretory granules. However, it remains unclear how Zn^2+ activities differ among different types of secretory granules including the glucagon granule and the somatostatin granule. To address the question, the inventors combined ZIGIR-2 and flow cytometry to analyze the granular Zn^2+ activity in primary mouse islet cells. To facilitate distinguishing different endocrine cells, they labeled mouse islets with a β-cell marker, a Cy5 dye conjugate of Exendin-4 peptide (Ex4) (Scheme 3). Ex4 is a high affinity ligand of the glucagon like peptide 1 receptor (GLP-1R). Since GLP-1R is highly expressed in mouse islet β-cells,^46 fluorescently labeled conjugates of Ex4 are rapidly internalized into β-cells through receptor-mediated endocytosis to mark β-cells.^36, 47 After labeling mouse islets with Ex4-Cy5, the inventors dispersed the islets into single cells and labeled them with ZIGIR-2 (FIG. 10A). […] To identify each subset of cells, the inventors isolated them by FACS and analyzed the sorted cells by immunofluorescence using antibodies against insulin, glucagon, and somatostatin. The immunofluorescence result confirmed that P1 and P2 subsets were essentially pure β-cells (99±0.3%, N=3) and α-cells (98±0.5%, N=3), respectively (FIG. 10C). […] The remaining ˜20% of cells in P3 and most cells in P4 were not stained by any of the three hormone antibodies. These cells likely represented rare […], islet endothelial cells or lymphoid cells, and residual exocrine cells.
Mouse islets were isolated as previously described (Li et al., 2011) by perfusing Collagenase P (Roche, 1.4 mg/mL in HBSS with 5 mM glucose) through the common bile duct. Following a 15 min digestion at 37° C., the pancreas digestion was washed twice with HBSS by centrifugation and the islets were hand-picked under a dissection scope. Isolated islets were cultured 2-4 hours in RPMI-1640 medium (GIBCO, #11875-093) supplemented with 10% (v/v) FBS, 2.0 mM sodium-pyruvate, 100 U/mL penicillin and […] at 37° C. in 5% CO2. To distinguish islet β-cells from non-β cells, islets were labeled with a fluorescently labeled exendin-4 derivative as previously described (Kim et al., 2017). Briefly, Ex4-Cy5 (100 nM) was added to the culture medium 2 hours before islet dispersion. ZIGIR labeling was carried out subsequently after islet dispersion. Mouse islets were dispersed with 0.05% Trypsin solution in DPBS at 37° C. for 15 min. The dispersed islet cells were incubated with 0.5 μM ZIGIR-1 (or ZIGIR-2) at 37° C. for 15 min in the cell sorting buffer (SAB Buffer containing 3 mM glucose, 0.5% BSA and 0.1 mg/mL DNase I (Roche)). The cells were then washed twice with ice-cold SAB and resuspended in the cell sorting buffer. The labeled cells were analyzed by flow cytometry on a LSRFortessa cell analyzer (BD Biosciences). DAPI (200 ng/mL) was added to the cell suspension prior to flow cytometry to distinguish live cells (DAPI negative) from dead cells (DAPI positive). Only live cells were analyzed.

[3] = system: T47D human breast cancer cells, H1299 lung carcinoma and HEK293 human embryonic kidney cells; experiment: ZIGIR-2 imaging in cells not known to contain Zn^2+ rich secretory granules
Procedure: To better understand the granular labeling specificity of ZIGIR-2, a number of mammalian cells were imaged that are not known to contain Zn^2+ rich secretory granules. These included T47D human breast cancer cells, H1299 lung carcinoma and HEK293 human embryonic kidney cells. […] However, after adding Zn/pyrithione, distinct ZIGIR-2 positive spots emerged in these cells (FIG. 8B). Subsequently, LysoTracker Green (LTG), an acidotropic fluorescent tracer based on BODIPY dye, was added to label acidic granules.
MIN-6 β cells were cultured as previously described (Li et al., 2011). HEK293 cells were cultured in DMEM medium supplemented with 10% FBS and 1% Penicillin/Streptomycin. T47D cells were cultured in RPMI-1640 medium supplemented with 10% FBS, 0.5% non-essential amino acids, 1 mM sodium pyruvate, 10 μg/mL geneticin and 0.01 mg/mL insulin. H1299 cells were cultured in RPMI-1640 medium supplemented with 10% FBS. All cells were maintained at 37° C. with 5% CO2. For cell imaging, cells were seeded in 35-mm petri dishes with glass bottoms (MatTek) and cultured for ˜24 hours to reach ˜50% confluence. Prior to labeling, cells were washed with a secretion assay buffer (SAB) containing 114 mM NaCl, 4.7 mM KCl, 1.2 mM KH2PO4, 2.5 mM CaCl2, 1.16 mM MgSO4, 3 mM glucose, and 20 mM Hepes (pH 7.4). […] ZIGIR colocalization with LysoTracker Green was analyzed and quantified with JACoP plugin of ImageJ.

[4] = ZIGIR-2 and Ex4-Cy5 labeling, N=3

Which “α-cell purity of sorted P2a and P2b subsets” value [1] does the source give for `CN(C)c1ccc2c(-c3ccc(NCCN(CCc4ccccn4)Cc4ccccn4)cc3C(=O)[O-])c3ccc(=[N+](C)C)cc-3oc2c1` [ZIGIR-2] here?
The value was greater than 95%.

What about the “β-cells in sorted P1 subset” value [1] of the same compound?
Its value is 91%.

And the “median fluorescence intensity (MFI) in α-cells versus δ-cells” value [2]?
The value was “nearly an order of magnitude stronger”.

And the “median fluorescence intensity (MFI) in α-cells, weaker than in β-cells” value [2]?
Its value is “about 5 times”.

And the “α-cells in sorted P2 subset” value [2, 4]?
Its value is 98±0.5%.

And the “β-cells in sorted P1 subset” value [2, 4]?
Its value is 99±0.3%.

And the “δ-cells in sorted P3 subset” value [2, 4]?
Its value is 81±4.8%.

What about the “ability to resolve islet cells into subsets by granular Zn^2+ activity” value ([2]; compared with commercially available Zn^2+ sensors) of the same compound?
Its value is “able to resolve islet cells into distinct subsets”.

What about the “overlap of ZIGIR-2 positive puncta with LysoTracker Green marked granules” value ([3]; after Zn/pyrithione) of the same compound?
Its value is “overlapped remarkably well”.

What about the “fluorescence signal in basal SAB buffer” value ([3]; same dye loading and imaging conditions as MIN6 cells) of the same compound?
Its value is “barely any ZIGIR-2 fluorescence signal was detected”.
